Laboratory results as given in the NIST ThermoML archive (doi:10.1021/acs.jced.8b00176).
Numbers after ± are expanded uncertainties.

Assay: xn = mol fraction of the nth substance listed
Settings: 100 kPa, Liquid; for viscosity: Falling or rolling sphere viscometry; for speed of sound: Frequency=3 MHz, Single path-length method; for mass density: Vibrating tube method

SMILES: CCCCn1cc[n+](C)c1.O=S(=O)([O-])C(F)(F)F [1-butyl-3-methylimidazolium trifluoromethanesulfonate] + CN(C)C=O
- viscosity (298.15 K, x1 = 0.1087): 1.8 ± 0.6 mPa·s
- viscosity (298.15 K, x1 = 0.203): 3.67 ± 0.6 mPa·s
- viscosity (298.15 K, x1 = 0.2978): 5.22 ± 0.6 mPa·s
- viscosity (298.15 K, x1 = 0.409): 8.68 ± 0.61 mPa·s
- viscosity (298.15 K, x1 = 0.4969): 13.24 ± 0.81 mPa·s
- viscosity (298.15 K, x1 = 0.603): 20.91 ± 0.83 mPa·s
- viscosity (298.15 K, x1 = 0.699): 32.59 ± 0.88 mPa·s
- viscosity (298.15 K, x1 = 0.809): 52.15 ± 0.93 mPa·s
- viscosity (298.15 K, x1 = 0.8928): 68.08 ± 1.2 mPa·s
- viscosity (298.15 K, x1 = 1): 82.38 ± 1.7 mPa·s
- speed of sound (298.15 K, x1 = 0.1087): 1449.2 ± 2.3 m/s
- speed of sound (298.15 K, x1 = 0.203): 1437.7 ± 2.3 m/s
- speed of sound (298.15 K, x1 = 0.2978): 1425.7 ± 2.4 m/s
- speed of sound (298.15 K, x1 = 0.409): 1415 ± 2.5 m/s
- speed of sound (298.15 K, x1 = 0.4969): 1409.2 ± 2.5 m/s
- speed of sound (298.15 K, x1 = 0.603): 1403 ± 2.6 m/s
- speed of sound (298.15 K, x1 = 0.699): 1399.1 ± 2.6 m/s
- speed of sound (298.15 K, x1 = 0.809): 1396.7 ± 2.7 m/s
- speed of sound (298.15 K, x1 = 0.8928): 1395 ± 2.8 m/s
- speed of sound (298.15 K, x1 = 1): 1393.2 ± 2.8 m/s
- mass density (298.15 K, x1 = 0.1087): 1042.02 ± 2 kg/m3
- mass density (298.15 K, x1 = 0.203): 1099.89 ± 2 kg/m3
- mass density (298.15 K, x1 = 0.2978): 1142.86 ± 2.1 kg/m3
- mass density (298.15 K, x1 = 0.409): 1181.65 ± 2.1 kg/m3
- mass density (298.15 K, x1 = 0.4969): 1206.07 ± 2.1 kg/m3
- mass density (298.15 K, x1 = 0.603): 1230.69 ± 2.2 kg/m3
- mass density (298.15 K, x1 = 0.699): 1249.54 ± 2.2 kg/m3
- mass density (298.15 K, x1 = 0.809): 1268.59 ± 2.3 kg/m3
- mass density (298.15 K, x1 = 0.8928): 1281.63 ± 2.3 kg/m3
- mass density (298.15 K, x1 = 1): 1297.46 ± 2.4 kg/m3
- viscosity (303.15 K, x1 = 0.1087): 1.67 ± 0.6 mPa·s
- viscosity (303.15 K, x1 = 0.203): 3.23 ± 0.6 mPa·s
- viscosity (303.15 K, x1 = 0.2978): 4.67 ± 0.6 mPa·s
- viscosity (303.15 K, x1 = 0.409): 7.62 ± 0.6 mPa·s
- viscosity (303.15 K, x1 = 0.4969): 11.4 ± 0.81 mPa·s
- viscosity (303.15 K, x1 = 0.603): 17.79 ± 0.82 mPa·s
- viscosity (303.15 K, x1 = 0.699): 27.14 ± 0.86 mPa·s
- viscosity (303.15 K, x1 = 0.809): 42.41 ± 0.94 mPa·s
- viscosity (303.15 K, x1 = 0.8928): 54.9 ± 0.97 mPa·s
- viscosity (303.15 K, x1 = 1): 66.69 ± 1.2 mPa·s
- speed of sound (303.15 K, x1 = 0.1087): 1432.1 ± 2.3 m/s
- speed of sound (303.15 K, x1 = 0.203): 1421.9 ± 2.3 m/s
- speed of sound (303.15 K, x1 = 0.2978): 1410.9 ± 2.4 m/s
- speed of sound (303.15 K, x1 = 0.409): 1401.2 ± 2.5 m/s
- speed of sound (303.15 K, x1 = 0.4969): 1396 ± 2.5 m/s
- speed of sound (303.15 K, x1 = 0.603): 1390.5 ± 2.6 m/s
- speed of sound (303.15 K, x1 = 0.699): 1387 ± 2.6 m/s
- speed of sound (303.15 K, x1 = 0.809): 1384.8 ± 2.7 m/s
- speed of sound (303.15 K, x1 = 0.8928): 1383.5 ± 2.8 m/s
- speed of sound (303.15 K, x1 = 1): 1382.8 ± 2.8 m/s
- mass density (303.15 K, x1 = 0.1087): 1037.25 ± 2 kg/m3
- mass density (303.15 K, x1 = 0.203): 1095.22 ± 2 kg/m3
- mass density (303.15 K, x1 = 0.2978): 1138.3 ± 2.1 kg/m3
- mass density (303.15 K, x1 = 0.409): 1177.22 ± 2.1 kg/m3
- mass density (303.15 K, x1 = 0.4969): 1201.73 ± 2.1 kg/m3
- mass density (303.15 K, x1 = 0.603): 1226.44 ± 2.2 kg/m3
- mass density (303.15 K, x1 = 0.699): 1245.37 ± 2.2 kg/m3
- mass density (303.15 K, x1 = 0.809): 1264.5 ± 2.3 kg/m3
- mass density (303.15 K, x1 = 0.8928): 1277.59 ± 2.3 kg/m3
- mass density (303.15 K, x1 = 1): 1293.46 ± 2.4 kg/m3
- viscosity (308.15 K, x1 = 0.1087): 1.55 ± 0.6 mPa·s
- viscosity (308.15 K, x1 = 0.203): 2.93 ± 0.6 mPa·s
- viscosity (308.15 K, x1 = 0.2978): 4.2 ± 0.6 mPa·s
- viscosity (308.15 K, x1 = 0.409): 6.73 ± 0.6 mPa·s
- viscosity (308.15 K, x1 = 0.4969): 9.92 ± 0.61 mPa·s
- viscosity (308.15 K, x1 = 0.603): 15.23 ± 0.82 mPa·s
- viscosity (308.15 K, x1 = 0.699): 22.89 ± 0.84 mPa·s
- viscosity (308.15 K, x1 = 0.809): 35.16 ± 0.9 mPa·s
- viscosity (308.15 K, x1 = 0.8928): 44.83 ± 0.96 mPa·s
- viscosity (308.15 K, x1 = 1): 52.86 ± 0.96 mPa·s
- speed of sound (308.15 K, x1 = 0.1087): 1415.2 ± 2.3 m/s
- speed of sound (308.15 K, x1 = 0.203): 1406 ± 2.3 m/s
- speed of sound (308.15 K, x1 = 0.2978): 1395.9 ± 2.4 m/s
- speed of sound (308.15 K, x1 = 0.409): 1387.2 ± 2.5 m/s
- speed of sound (308.15 K, x1 = 0.4969): 1382.9 ± 2.5 m/s
- speed of sound (308.15 K, x1 = 0.603): 1378.1 ± 2.6 m/s
- speed of sound (308.15 K, x1 = 0.699): 1375 ± 2.6 m/s
- speed of sound (308.15 K, x1 = 0.809): 1373.3 ± 2.7 m/s
- speed of sound (308.15 K, x1 = 0.8928): 1372.1 ± 2.8 m/s
- speed of sound (308.15 K, x1 = 1): 1371.7 ± 2.8 m/s
- mass density (308.15 K, x1 = 0.1087): 1032.47 ± 2 kg/m3
- mass density (308.15 K, x1 = 0.203): 1090.53 ± 2 kg/m3
- mass density (308.15 K, x1 = 0.2978): 1133.72 ± 2.1 kg/m3
- mass density (308.15 K, x1 = 0.409): 1172.78 ± 2.1 kg/m3
- mass density (308.15 K, x1 = 0.4969): 1197.38 ± 2.1 kg/m3
- mass density (308.15 K, x1 = 0.603): 1222.2 ± 2.2 kg/m3
- mass density (308.15 K, x1 = 0.699): 1241.2 ± 2.2 kg/m3
- mass density (308.15 K, x1 = 0.809): 1260.4 ± 2.3 kg/m3
- mass density (308.15 K, x1 = 0.8928): 1273.54 ± 2.3 kg/m3
- mass density (308.15 K, x1 = 1): 1289.47 ± 2.4 kg/m3
